In patent US6939990B2, “Derivatives of dicarboxylic acid having pharmaceutical properties” (Bayer Aktiengesellschaft, priority 2001, dated 2005):
Counter-ions that a name gives are not always drawn.

Key:
arteria saphena rings = assay: Vasorelaxant effect in vitro (phenylephrine-contracted arteria saphena rings); assay type: cell-based, Rabbits; settings: Oryctolagus cuniculus; rabbit arteria saphena rings, contractions generated by phenylephrine, 0.1% DMSO; read-out: IC50, concentration necessary to reduce the height of the contraction of the control value by 50%
Protocol: Vasorelaxant Effect In Vitro
Rabbits are anesthetized or killed by intravenous injection of thiopental sodium (about 50 mg/kg) and exsanguinated. The arteria saphena is removed and divided into rings 3 mm wide. The individual rings are in each case mounted on a pair of hooks of triangular shape, open at the end and made of special wire (Remanium®) having a diameter of 0.3 mm. Under pretension, each ring is introduced into a 5 ml organ bath containing carbogen-gassed Krebs-Henseleit solution at 37° C. with the following composition (mM): NaCl: 119; KCl: 4.8; CaCl2×2H2O: 1; MgSO4×7H2O: 1.4; KH2PO4: 1.2; NaHCO3: 25; glucose: 10; bovine serum albumin: 0.001%. The force of contraction is detected with Statham UC2 cells, amplified and digitized via A/D converters (DAS-1802 HC, Keithley Instruments, Munich) and recorded in parallel on chart recorders. Contractions are generated by adding phenylephrine.
After several (generally 4) control cycles, the substance to be investigated is added in each further run in increasing dosage in each case, and the height of the contraction reached under the influence of the test substance is compared with the height of the contraction reached in the last preceding run. The concentration necessary to reduce the height of the control value by 50% (IC50) is calculated from this. The standard application volume is 5 μl. The DMSO content in the bath solution corresponds to 0.1%.

| Structure (SMILES) | melting point | IC50 (arteria saphena rings) |
| --- | --- | --- |
| O=C(O)CCCCN(CCc1cc(F)ccc1COc1ccc(C2CCCCC2)cc1)Cc1ccc(C(=O)O)cc1 [Example 12, 4-{[(4-Carboxybutyl)(2-{2-[(4-cyclohexylphenoxy)methyl]-5-fluorophenyl}ethyl)amino]methyl}benzoic acid] | > 250 °C | 0.4 nM |
| O=C(O)CCCCN(CCc1cc(F)ccc1COc1ccc(-c2ccc(C(F)(F)F)cc2)cc1)Cc1ccc(C(=O)O)cc1 [Example 17] |  | 0.26 nM |
| O=C(O)CCCCN(CCc1ccccc1OC(F)(F)c1ccc(-c2ccc(C(F)(F)F)cc2)cc1)Cc1ccc(C(=O)O)cc1 [Example 6, 4-({(4-Carboxybutyl)[2-(2-{difluoro[4′-(trifluoromethyl)-1,1′-biphenyl-4-yl]methoxy}phenyl)ethyl]amino}methyl)benzoic acid] |  | 0.041 nM |
| O=C(O)CCCCN(Cc1ccc(C(=O)O)cc1)Cc1cccc(Oc2ccc(C3CCCCC3)cc2)c1 [Example 3, 4-({(4-Carboxybutyl)[3-(4-cyclohexylphenoxy)benzyl]amino}methyl)-benzoic acid hydrochloride] |  | 36 nM |
| O=C(O)CCCCN(Cc1ccc(C(=O)O)cc1)Cc1cccc(Oc2ccc(-c3ccc(C(F)(F)F)cc3)cc2)c1 [Example 2] |  | 55 nM |
